Laboratory results reported in paper PMC10126473 (Frontiers in Pharmacology, 2023).
Values joined by “and” are separate entries in the source; they are usually repeats but may differ in a detail not shown here. Identical values can stand only once. Like-named read-outs stand apart in the source and are kept apart here.

Experiments:
[1] = Parallel artificial membrane permeability assay (PAMPA); settings: pH 7.4
Procedure: The test samples (0.05 mM test article in pH 7.4 buffer with 0.5% DMSO) were added in the donor compartment and were stirred using the Gutbox technology (Pion Inc.) to reduce the aqueous boundary layer. The test article concentrations in the donor and acceptor compartments were measured using a UV plate reader (Nano Quant, Infinite 200 PRO, Tecan Inc., Männedorf, Switzerland).

[2] = Plasma protein binding, equilibrium dialysis (RED device); type: in vitro ADME, human; settings: read-out: Fup (unbound fraction in plasma)
Procedure: Plasma protein binding was determined with equilibrium dialysis method using the Rapid Equilibration Dialysis (RED) device (Thermo Fisher Catalog # 90006). The assay was performed using manufacturer’s procedures. Briefly, plasma spiked with a test compound (5 µM) was added to the plasma chamber of the RED device. Blank potassium phosphate buffer (100 mM) was added to the buffer chamber of the RED device and the plate was incubated at 37°C. Aliquots of the buffer and the plasma were taken at 0 and 4 h, and the concentrations of free and bound test compounds were determined using the previously described LC-MS method ([Shah et al., 2016]).

[3] = Hamster PK and lung concentration study (non-compartmental analysis); settings: for half-life: t1/2 Observed; for Tmax: Tmax Observed
Procedure: For the IV group, a single bolus IV dose of 3 mg/kg of PDN was administered to 24 hamsters (3 hamsters per time point). For the PO group, a dose of 30 mg/kg of PDN was administered via oral gavage to 21 hamsters (3 hamsters per time point). The formulation used for both IV and PO was 20% HP-β-CD in water (0.6 mg/mL PDN for IV and 3 mg/mL for PO). All dosing solutions were freshly prepared on the day of dosing. […] After collection, tissues were weighed and frozen. All blood samples were centrifuged at 4°C to obtain plasma. Plasma samples were transferred to tubes preloaded with NaF (final concentration at 5 mM in 200 µL plasma) and stored at −80°C until analysis.
For fat tissue, an additional 3-fold volume of acetonitrile was added to the water homogenate and was vortexed in a shaker for another 30 min.
A 10 μ aliquot of samples, blank controls (blank plasma or tissue homogenates), quality controls (QC), and standards were added into 200 μ acetonitrile solution with 100 ng/mL tolbutamide (internal standard, IS). All samples were then thoroughly shaken for 5 min to precipitate proteins. The samples were centrifuged at 3000 rpm and 4°C for 30 min. The supernatant was injected for UPLC-MS/MS analysis.
The mobile phase consisted of 0.1% formic acid in water (A) and 0.1% formic acid in acetonitrile (B), the flow rate was 600 μL/min. […] All analyses were carried out using a Waters Acquity I-Class UPLC interfaced with a Waters Xevo TQ-S mass spectrometer. The mass spectrometer multiple reaction monitoring (MRM) experiment was operated with an ESI source at negative mode with spray voltage of 1 kV, and temperature of 600°C. Both Q1 and Q3 were set at unit resolution. […] The correlation coefficients of the calibration curves were all greater than 0.99. […] The linear range, precision and accuracy of QCs in various tissues and plasma are shown in Supplementary Table S1 and Supplementary Table S2.
The area under the concentration vs. time curve (AUC) was calculated using the linear trapezoidal method. The terminal rate constant (λ) was obtained from the slope of at least three data points of the apparent terminal phase of the log linear concentration vs. time curve. AUC0–∞ was estimated as the sum of the AUC0–t (where t is the time of the last measurable concentration) and Ct/λ. […] Bioavailability (F) was calculated using ratios of dose-normalized AUC of PO and IV administration.

[4] = PBPK model (GastroPlus): simulation and model parameters incl. permeability surface product and scaled metabolic kinetics, mouse; settings: for Liver Vmax / Plasma k: in vivo (scaled)
Procedure: (§1) CL in vitro,app expressed as mL/min/mg microsomes were scaled to the predicted CLintrinsic using scaling factor (SF), microsome level and liver weight as indicated below: CLintrinsic=CLin vitro,app×SF×liver weight×microsome level per gram liver
(§2) All modeling and simulation were carried out using GastroPlus version 9.5 (Simulations Plus Inc., CA). Physiochemical parameters including blood-to-plasma ratio (Rbp), pKa, and logP were predicted by ADMET predictor (Simulations Plus Inc., CA). Physiologies of all species, including organ weights, volumes, tissue compositions, and blood perfusion rates, were generated by the program’s internal module. Tissue intracellular unbound fractions were generated by GastroPlus based on predicted or experimentally determined physiochemical and chemical-biological parameters including pKa, logP, plasma unbound fractions (Fup), Rbp, solubility, and PAMPA permeability. The PBPK model structure is illustrated in Figure 2 and its parameters are summarized in Supplementary Tables S3–6. The default absorption and dissolution model was applied and effective intestine permeability was predicted by a built-in correlation from the experimental PAMPA permeability result. Parameters including partition coefficients in tissue (Kp), CLintrinsic, and permeability surface area product (PStc) were estimated by fitting the model to experimental data using the optimization module in GastroPlus with objective function weights at 1/(y + ŷ)^2, where y is the observed value and ŷ is the predicted value.
Model parameter estimation of all plasma-tissue partition coefficients (Kp) was performed simultaneously using both the IV and PO datasets. […] The experimentally determined pharmacokinetic profiles were compared with the model simulations.

[5] = PBPK model (GastroPlus): simulation and model parameters incl. permeability surface product and scaled metabolic kinetics, hamster; settings: for Liver Vmax / Plasma k: in vivo (scaled)
Procedure: as §1, §2
Experimental measurements of hamster plasma pharmacokinetics and lung concentrations were used in the model validation.

SARS-CoV-2 = system: SARS-CoV-2; parameters: method as in Huang et al., 2022; settings: cytopathic effect assay and cytotoxicity counter screen; ref Huang et al., 2022; cited from earlier work
[6] = Metabolic stability in plasma; settings: for Plasma k: hamster, in vitro
[7] = Metabolic stability and biotransformation in liver microsomes; settings: for Liver Vmax: in vitro
Procedure: The incubation was carried out at 37°C for 15, 30, and 60 min. The reaction in plasma or liver microsomes was quenched by adding 200 μL of cold acetonitrile (containing 100 ng/mL tolbutamide as internal standard).
The mc was the microsome concentration used in the incubation (0.5 mg/mL). The substrate disappearance half-life (t1/2) was estimated by regression analysis of the semi-logarithmic (ln Conc vs. time) plots. […] The Vmax, in vitro,app, PDN-total and Km for PDN depletion in liver microsomes were estimated by the Michaelis-Menten model using GraphPad Prism version 8.

[8] = male, LVG golden Syrian, hamster, in vivo, iv, 3 mg/kg
[9] = male, LVG golden Syrian, hamster, in vivo, po, 30 mg/kg
[10] = male, LVG golden Syrian, hamster, in vivo, po, 30 mg/kg, hamsters, PO 30 mg/kg PDN, lung
[11] = male, LVG golden Syrian, hamster, in vivo, po, 30 mg/kg, hamsters, PO 30 mg/kg PDN, plasma
[12] = conversion to Nc, in vivo, predicted from in vitro liver parameters

Structure (SMILES): O=C(Nc1ccc([N+](=O)[O-])cc1Cl)c1cc(Cl)ccc1OC(=O)N1CCNCC1 [PDN]
- Papp at 0.05 mM [1]: > 100 ×10⁻⁶ cm/s
- fraction unbound at 4 h, 5 µM ([2]; human and rodent (rodent predicted), rodent (predicted) and human plasma): 0.12 to 0.15
- fraction unbound at 4 h, 5 µM ([2]; human, human plasma, experimental): 0.152
- AUC0-∞ Observed ([3]; hamsters, IV 3 mg/kg PDN, lung): 45600 (4266) h*ng/g
- AUC0-∞ Observed ([3]; hamsters, PO 30 mg/kg PDN, lung): 462000 (28500) h*ng/g
- t1/2 Observed ([3]; hamsters, PO 30 mg/kg PDN, plasma, 30 mg/kg): 1.8 (0.13) h
- AUC(0-inf) [3, 8]: 631 ng·h/mL
- Kp [3, 8]: 72
- Vd [3, 8]: 0.74 L
- clearance [3, 8]: 8 mL/min
- half-life ([3]; male, LVG golden Syrian, hamster, in vivo, iv, 3 mg/kg, hamsters, IV 3 mg/kg PDN, lung): 1.1 h
- half-life ([3]; male, LVG golden Syrian, hamster, in vivo, iv, 3 mg/kg, hamsters, IV 3 mg/kg PDN, plasma): 1.1 h
- AUC(0-inf) [3, 9]: 4320 ng·h/mL
- CL/F [3, 9]: 11.5 mL/min
- Cmax [3, 9]: 98000 ng/g and 1060 ng/mL
- Kp [3, 9]: 107
- Vd/F [3, 9]: 1.78 L
- bioavailability [3, 9]: ~64%
- Tmax [3, 10]: 1 h
- Tmax [3, 11]: 0.5 h
- half-life [3, 10]: 2.3 h
- half-life [3, 11]: ~1.8 h
- Liver Vmax ([4]; conversion to Nc): 0.0015 mg/s/mg microsomes
- Plasma k ([4]; conversion to Nc): 0.0067 s⁻¹
- Gut Vmax [4, 12]: 0.00004 mg/s/mg microsomes
- Liver Vmax ([4]; conversion to Others): 0.2310 mg/s/mg microsomes
- Plasma k ([4]; conversion to Others): 0.0080 s⁻¹
- Liver Vmax ([5]; conversion to Nc): 0.0130 mg/s/mg microsomes
- Plasma k ([5]; conversion to Nc): 0.0052 s⁻¹
- Gut Vmax [5, 12]: 0.0004 mg/s/mg microsomes
- Liver Vmax ([5]; conversion to Others): 0.1649 mg/s/mg microsomes
- Plasma k ([5]; conversion to Others): 0.0189 s⁻¹
- in vitro activity against SARS-CoV-2 (SARS-CoV-2): showed in vitro activity against SARS-CoV-2
- Plasma k ([6]; conversion to Nc): 0.0045 s⁻¹
- Plasma k ([6]; conversion to Others): 0.0146 s⁻¹
- kin vitro,app, PDN-total (total depletion of PDN) ([6]; hamster plasma, 37°C): 0.0191 ± 0.0044 min⁻¹
- Liver Vmax ([7]; conversion to Nc, human): 0.0002 mg/s/mg microsomes
- Gut Vmax ([7]; conversion to Nc, human, in vitro (in vitro liver parameters)): 0.00024 mg/s/mg microsomes
- Liver Vmax ([7]; conversion to Others, human): 0.0106 mg/s/mg microsomes
- Vmax in vitro,app, PDN-total ([7]; human liver microsomes): 0.365 ± 0.187 nmol/min/mg
- Km ([7]; human, pH 7.4): 33.8 ± 29.1 µM
